Assay results from US12599674B2, “Conjugates, their compositions, and their related methods” (THE ADMINISTRATORS OF THE TULANE EDUCATIONAL FUND, priority 2021, dated 2026).
Entries after “also recorded” stand apart in the source; their conditions may differ.

Legend:
[1] = Body weights in U-937 xenograft study; format: in vivo; conditions: U-937 xenograft SCID mice, tail vein AP3 0.5 mg/kg days 0 and 15 (FIG. 11 legend)
Procedure: Female SCID mice (Tyercan, Ltd, Shenzhen) aged at 4-6 weeks-old were purchased and reared in the laboratory animal facility for one week to adapt to the new environment. A total of 5×10^6 human U-937 lymphoma tumor cells (200 μl) were inoculated into the right flank of each mouse by subcutaneous injection. […] […] 100 μl of normal saline was injected via the tail vein in a second control group on the same days. Tumor volumes were measured and mouse bodies were weighed twice a week since the first administration.

[2] = tested on: human gastric tumor SGC-7901 cells; experiment: Xenograft mouse model, SGC-7901 tumor growth; format: in vivo, BALB/c nude mice; conditions: tail vein; 100 μl containing 0.4 mg of AP-3 on days 0 and 14; nude mice; compared to controls
Procedure: Female BALB/c nude mice aged at 4-6 weeks-old were purchased (Tyercan, Ltd, Shenzhen) and reared in the laboratory animal facility for one week to adapt to the new environment. A total of 5×10^6 human gastric tumor SGC-7901 cells (200 μl) were inoculated into the right flank of each mouse by subcutaneous injection. When the tumor sizes reached 100-300 mm^3 (tumor volume=0.5×Length×Width^2), tumor-carrying mice in the experimental group were given (via tail vein injection) a first dose (at day zero) of 100 μl of AP3-HSA 200 mg/kg and a second dose (at day 14) of 150 mg/kg. A control group was injected with 100 μl of AP-3 containing 0.4 mg of AP-3 on days 0 and 14 in a similar fashion. 100 μl of normal saline was injected via the tail vein in a second control group on the same days. Tumor volumes were measured and mouse bodies were weighed twice a week since the first administration.

COc1cc2cc(c1Cl)N(C)C(=O)C[C@H](OC(=O)C(C)C)[C@]1(C)O[C@@H]1[C@H](C)[C@@H]1C[C@@](O)(NC(=O)O1)[C@H](OC)/C=C/C=C(\C)C2 [AP3, Ansamitocin P3]
recovery of body weights after treatment [1]: returned to normal about a week after the final injections
effect on body weights ([1]; 0.5 mg/kg): decreases in body weight; also recorded: weight losses
effect on growth of SGC-7901 tumors [2]: only marginally effective
